# Measured values taken from PubChem BioAssay AID1259407 (Chemical Carcinogenesis Research Information System (CCRIS), 2018).
# Activity calls are given as the source filed them. No rule for the calls is given here.
# Tested on: CCRIS mutagenicity, Ames/micronucleus/aberration tests
# Test: CCRIS mutagenicity studies
# [1] = Test System: AMES SALMONELLA TYPHIMURIUM, Strain/Indicator: TA98, Metabolic Activation: NONE, Method: STANDARD PLATE
# [2] = Test System: AMES SALMONELLA TYPHIMURIUM, Strain/Indicator: TA98, Metabolic Activation: RAT, LIVER, S-9, AROCLOR 1254, Method: STANDARD PLATE
# [3] = Test System: AMES SALMONELLA TYPHIMURIUM, Strain/Indicator: TA100, Metabolic Activation: NONE, Method: STANDARD PLATE
# [4] = Test System: AMES SALMONELLA TYPHIMURIUM, Strain/Indicator: TA100, Metabolic Activation: RAT, LIVER, S-9, AROCLOR 1254, Method: STANDARD PLATE
# [5] = Test System: AMES SALMONELLA TYPHIMURIUM, Strain/Indicator: TA102, Metabolic Activation: NONE, Method: STANDARD PLATE
# [6] = Test System: AMES SALMONELLA TYPHIMURIUM, Strain/Indicator: TA1538, Metabolic Activation: NONE, Method: STANDARD PLATE
# [7] = Test System: AMES SALMONELLA TYPHIMURIUM, Strain/Indicator: TA1538, Metabolic Activation: RAT, LIVER, S-9, AROCLOR 1254, Method: STANDARD PLATE
# [8] = Test System: AMES SALMONELLA TYPHIMURIUM, Strain/Indicator: TA100, Metabolic Activation: NONE, Method: PREINCUBATION
# [9] = Test System: AMES SALMONELLA TYPHIMURIUM, Strain/Indicator: TA102, Metabolic Activation: NONE, Method: PREINCUBATION
compound,measurement,setting,value
CCC(CCC(C)=O)COC(=O)CCCCC(=O)O (stereo unspecified),mutagenic call,"Test System: AMES SALMONELLA TYPHIMURIUM, Strain/Indicator: TA97, Metabolic Activation: NONE, Method: STANDARD PLATE",inactive; negative
same,mutagenic call,"Test System: AMES SALMONELLA TYPHIMURIUM, Strain/Indicator: TA97, Metabolic Activation: RAT, LIVER, S-9, AROCLOR 1254, Method: STANDARD PLATE",inactive; negative
same,mutagenic call,"Test System: AMES SALMONELLA TYPHIMURIUM, Strain/Indicator: TA97, Metabolic Activation: RAT, LIVER, S-9, DI(2-ETHYLHEXYL)PHTHALATE, Method: STANDARD PLATE",inactive; negative
same,mutagenic call,[1],inactive; negative
same,mutagenic call,[2],inactive; negative
same,mutagenic call,"Test System: AMES SALMONELLA TYPHIMURIUM, Strain/Indicator: TA98, Metabolic Activation: RAT, LIVER, S-9, DI(2-ETHYLHEXYL)PHTHALATE, Method: STANDARD PLATE",inactive; negative
same,mutagenic call,[3],inactive; negative
same,mutagenic call,[4],inactive; negative
same,mutagenic call,"Test System: AMES SALMONELLA TYPHIMURIUM, Strain/Indicator: TA100, Metabolic Activation: RAT, LIVER, S-9, DI(2-ETHYLHEXYL)PHTHALATE, Method: STANDARD PLATE",inactive; negative
same,mutagenic call,[5],inactive; negative
same,mutagenic call,"Test System: AMES SALMONELLA TYPHIMURIUM, Strain/Indicator: TA102, Metabolic Activation: RAT, LIVER, S-9, AROCLOR 1254, Method: STANDARD PLATE",inactive; negative
same,mutagenic call,"Test System: AMES SALMONELLA TYPHIMURIUM, Strain/Indicator: TA102, Metabolic Activation: RAT, LIVER, S-9, DI(2-ETHYLHEXYL)PHTHALATE, Method: STANDARD PLATE",inactive; negative
CCc1ccc(C)cc1,mutagenic call,"Test System: AMES SALMONELLA TYPHIMURIUM, Strain/Indicator: TA97A, Metabolic Activation: NONE, Method: STANDARD PLATE",inactive; negative
same,mutagenic call,"Test System: AMES SALMONELLA TYPHIMURIUM, Strain/Indicator: TA97A, Metabolic Activation: RAT LIVER S-9, AROCLOR 1254, Method: STANDARD PLATE",inactive; negative
same,mutagenic call,[1],inactive; negative
same,mutagenic call,"Test System: AMES SALMONELLA TYPHIMURIUM, Strain/Indicator: TA98, Metabolic Activation: RAT LIVER S-9, AROCLOR 1254, Method: STANDARD PLATE",inactive; negative
same,mutagenic call,[3],inactive; negative
same,mutagenic call,"Test System: AMES SALMONELLA TYPHIMURIUM, Strain/Indicator: TA100, Metabolic Activation: RAT LIVER S-9, AROCLOR 1254, Method: STANDARD PLATE",inactive; negative
same,mutagenic call,[5],inactive; negative
same,mutagenic call,"Test System: AMES SALMONELLA TYPHIMURIUM, Strain/Indicator: TA102, Metabolic Activation: RAT LIVER S-9, AROCLOR 1254, Method: STANDARD PLATE",inactive; negative
CC(S)C(=O)NCC(=O)O (stereo unspecified),mutagenic call,[1],inactive; negative
same,mutagenic call,[2],inactive; negative
same,mutagenic call,[3],inactive; negative
same,mutagenic call,[4],inactive; negative
same,mutagenic call,"Test System: AMES SALMONELLA TYPHIMURIUM, Strain/Indicator: TA1535, Metabolic Activation: NONE, Method: STANDARD PLATE",inactive; negative
same,mutagenic call,"Test System: AMES SALMONELLA TYPHIMURIUM, Strain/Indicator: TA1535, Metabolic Activation: RAT, LIVER, S-9, AROCLOR 1254, Method: STANDARD PLATE",inactive; negative
same,mutagenic call,"Test System: AMES SALMONELLA TYPHIMURIUM, Strain/Indicator: TA1537, Metabolic Activation: NONE, Method: STANDARD PLATE",inactive; negative
same,mutagenic call,"Test System: AMES SALMONELLA TYPHIMURIUM, Strain/Indicator: TA1537, Metabolic Activation: RAT, LIVER, S-9, AROCLOR 1254, Method: STANDARD PLATE",inactive; negative
same,mutagenic call,[6],inactive; negative
same,mutagenic call,[7],inactive; negative
O=c1ccc2cc3c4c(c2o1)CCCN4CCC3,mutagenic call,[6],inactive; negative
same,mutagenic call,[7],active; positive
c1ccc2c(OC[C@H]3CO3)cccc2c1,mutagenic call,[3],active; positive
O=CN(O)c1cccc(Cl)c1,mutagenic call,[1],inactive; negative
same,mutagenic call,[2],inactive; negative
same,mutagenic call,[3],inactive; negative
same,mutagenic call,[4],inactive; negative
CC1=C(O)C(=O)CC1,mutagenic call,"Test System: AMES SALMONELLA TYPHIMURIUM, Strain/Indicator: TA98, Metabolic Activation: NONE, Method: PREINCUBATION",inactive; negative
same,mutagenic call,"Test System: AMES SALMONELLA TYPHIMURIUM, Strain/Indicator: TA98, Metabolic Activation: RAT, LIVER, S-9, AROCLOR 1254, Method: PREINCUBATION",inactive; negative
same,mutagenic call,[8],inactive; negative
same,mutagenic call,"Test System: AMES SALMONELLA TYPHIMURIUM, Strain/Indicator: TA100, Metabolic Activation: RAT, LIVER, S-9, AROCLOR 1254, Method: PREINCUBATION",inactive; negative
same,mutagenic call,[9],inactive; negative
same,mutagenic call,"Test System: AMES SALMONELLA TYPHIMURIUM, Strain/Indicator: TA102, Metabolic Activation: RAT, LIVER, S-9, AROCLOR 1254, Method: PREINCUBATION",inactive; negative
O=C(O)Cc1ccc(O)c(O)c1,mutagenic call,"Test System: AMES SALMONELLA TYPHIMURIUM, Strain/Indicator: TA92, Metabolic Activation: NONE, Method: PREINCUBATION",inactive; negative
same,mutagenic call,"Test System: AMES SALMONELLA TYPHIMURIUM, Strain/Indicator: TA97, Metabolic Activation: NONE, Method: PREINCUBATION",inactive; negative
same,mutagenic call,[8],inactive; negative
same,mutagenic call,[9],active; positive
same,mutagenic call,"Test System: AMES SALMONELLA TYPHIMURIUM, Strain/Indicator: TA104, Metabolic Activation: NONE, Method: PREINCUBATION",active; positive
same,mutagenic call,"Test System: AMES SALMONELLA TYPHIMURIUM, Strain/Indicator: TA1535, Metabolic Activation: NONE, Method: PREINCUBATION",inactive; negative
same,mutagenic call,"Test System: AMES SALMONELLA TYPHIMURIUM, Strain/Indicator: TA1537, Metabolic Activation: NONE, Method: PREINCUBATION",inactive; negative
same,mutagenic call,"Test System: CHINESE HAMSTER V-79, Strain/Indicator: V-79/6-THIOGUANINE, Metabolic Activation: NONE, Method: STANDARD PLATE",active; positive
